This is an account of results in patent publication US20090291928A1, “COMPOSITION FOR AMELIORATION/PREVENTION OF ADVERSE SIDE EFFECT IN STEROID THERAPY” (AJINOMOTO CO., INC., priority 2006, published 2009).

For this series, the system named is dexamethasone administered rat. Briefly: Muscular atrophy prophylactic effect of BCAA in dexamethasone administered rat (Example 1). Format: in vivo. Particulars: effect of dexamethasone administration itself, 600 μg/kg i.p. 5 days. The method, then: Dexamethasone (600 μg/kg) was intraperitoneally administered to rats (SD; 10-11-week-old) for 5 consecutive days. An isoleucine, leucine and valine (weight ratio 1:2:1.2) blend (BCAA) administration group was orally administered with 0.75 g/kg of BCAA above simultaneously for 5 consecutive days. A vehicle group was orally administered with distilled water consecutively in the same manner.
On day 5, the rats were autopsied and analyzed for muscular strength function evaluation, blood glucose level and plasma insulin level using a feed intake, body weight profile, muscle weight, grip strength measurement apparatus.
As the control group, pair-feeding normal rats were used.

As for `C[C@@H]1C[C@H]2[C@@H]3CCC4=CC(=O)C=C[C@]4(C)[C@@]3(F)[C@@H](O)C[C@]2(C)[C@@]1(O)C(=O)CO` [dexamethasone], the blood glucose level entry (SD rats (FIG. 4)) was “increased”. Also, the insulin level entry (SD rats (FIG. 5)) was “increased”.
